Source: US20240398767A1, “INHIBITORS OF THE MTDH-SND1 PROTEIN COMPLEX FOR CANCER THERAPY” (The Trustees of Princeton University, priority 2021, published 2024)
“Also recorded” adds a separate entry of the source.

Experiments:
orthotopic PyMT tumors = assay: Established orthotopic PyMT tumors in FVB female mice; format: in vivo
Description: FIG. 5B, Tumor size was determined. Vehicle, n=10 mice, C26-A6, n=12 mice. Significance determined by Two-Way Repeated Measures ANOVA test.
FIG. 5C, Tumor mass was determined. Vehicle, n=10 mice, C26-A6, n=12 mice. Size bar, 2 cm.
FIG. 5D, H&E staining was performed with lungs, and metastatic nodules were counted. The metastatic nodules of the representative lungs were highlighted with red and blue respectively. Vehicle, n=10 lungs; C26-A6, n=12 lungs. Size bar, 5 mm.
FIG. 13D, Primary tumors from experiment in FIG. 5B were stained with Ki67 and Cleaved-Caspase 3 (Casp-3) antibodies. Size bar, 100 μm.
FIG. 13E, Positive cells were quantified. Data represent mean±SEM. n=6 mice.
Next, established orthotopic PyMT tumors^4 were treated with vehicle or C26-A6 (FIG. 5A). […] The results were confirmed with SCP28 xenograft tumor model in NSG mice (FIGS. 13A-13C).
Methods: Animal models. All procedures involving mice and experimental protocols were approved by the Institutional Animal Care and Use Committees (IACUC) of Princeton University. According to the approved IACUC protocol (1881-20), the primary humane endpoint of tumor burden for an individual mouse is 20 mm in any dimension or a total volume of 4000 mm^3 for mice with multiple tumors. Mice were euthanized before exceeding the limit of tumor burden in this study. In the facility, mice were maintained at 20-22° C. with 14 h:10 h light:dark cycles at 40-70% relative humidity. The Mtdh^fl/fl ES cell lines generated by Mtdh targeting vector (CSD48311) was obtained from the KOMP Repository. The ES cells were injected into the C57BL/6 blastocysts followed by confirmation of germline transmission. Mtdh^fl/fl mice were crossed with FLPe mice to remove the selection marker in the vector. Genotyping (Forward primer: […] (SEQ ID NO:21); Reverse primer: […] (SEQ ID NO:22)) was performed to identify positive mice before they were crossed to other strains that were indicated in each experiment. FLPe (Stock No. 003946), MMTV-PyMT (Stock No. 002374), MMTV-WNT1 (Stock No. 002934), C3 (Stock No. 013591), UBC-Cre^ERT2 (Stock No. 007001), FVB (Stock No. 001800), Balb/C (Stock No. 000651), Athymic nude (Nude) (Stock No. 002019), and NOD Scid Gamma (NSG) (Stock No. 005557) were obtained from Jackson Laboratory. Mice in C57BL/6 background were backcrossed to FVB for at least 10 generations to change the background. […] The tumors were measured by calipers for calculation of tumor volumes (length×width^2/2). For cell lines that are stably labeled with a firefly luciferase expressing vector, lung metastases were monitored by bioluminescent imaging (BLI) and images were processed with Living Image 3D Analysis (version 1.0). […]

PyMT tumor cells = assay: Experimental lung metastasis, tail vein injection of PyMT tumor cells; format: in vivo, FVB mice; details: treatment from 3 days after injection, five weeks
Description: FIG. 5L, 2 k PyMT tumor cells were injected into FVB females via tail-vein. 3 days after injection, the mice were treated with vehicle or C26-A6.
FIG. 5M, 2 k PyMT tumor cells were injected into FVB females via tail-vein. 3 days after injection, the mice were treated with vehicle or C26-A6. 5 weeks later, lung metastatic nodules were counted. n=6 mice per group. Data represent mean±SEM.
To exclude the possibility that the lung metastasis reduction upon C26-A6 treatment was due to the smaller primary tumor, tail vein injection of PyMT tumor cells was performed to form experimental lung metastasis in FVB mice. Three days later, mice were divided randomly into two groups and treated with vehicle or C26-A6 respectively (FIG. 5L).

[1] = Toxicity in PyMT tumor-bearing FVB mice (body weight, ALT/AST, blood cell counts, small intestine); format: in vivo; details: 15 mg/kg i.v.
Description: FIG. 12D, Body weight of the mice in experiment from FIG. 5B was measured. Vehicle, n=10 mice; C26-A6, n=12 mice.
FIG. 12E, Serum from mice in experiment in FIG. 5B were collected for ALT and AST activity measurement following the standard protocol (Sigma). Three FVB females treated with 200 μl of 8% CCl4 in corn oil for 2 days served as positive control. Data represent mean±SEM. n=5 mice per group. Significance determined by one-way ANOVA analysis with Dunnett's test for multiple comparisons.
FIG. 12F, Blood samples were drawn from the heart of mice in experiment FIG. 5B, and blood cell counts were performed with the Sysemx XN-3000 Hematology System (Sysmex America, Inc.) Data represent mean±SEM. Vehicle, n=6 mice; C26-A6, n=5 mice. Significance determined by two tailed Student's t-test.
FIG. 12G, Small intestine samples were obtained from mice in experiment from FIG. 5B. H&E and Alcian blue staining was performed on processed, sliced samples. Scale bar: 200 μm.
FIG. 12H, Quantification of Alcian blue staining results from (FIG. 12G). Data represent mean±SEM. n=12 fields from 5 mice in each group. Significance determined by two tailed Student's t-test.

[2] = 15 mg/kg i.v., continuous treatment

COc1ccc(Cl)cc1S(=O)(=O)Nc1cccn2nc(C)nc12 [Analog C26-A6]
primary tumor growth (orthotopic PyMT tumors; [2]): significantly inhibited | spontaneous lung metastasis (orthotopic PyMT tumors; [2]): significantly inhibited | tumor apoptosis (cleaved-Caspase 3) (orthotopic PyMT tumors; IHC of primary tumors): induced tumor apoptosis | tumor proliferation (Ki67) (orthotopic PyMT tumors; IHC of primary tumors): reduced tumor proliferation | lung metastasis (metastatic nodules) (PyMT tumor cells): significantly suppressed lung metastasis | hematologic, GI tract, and liver toxicity / tolerability [1]: no significant hematologic, GI tract, and liver toxicity; also recorded: well-tolerated in vivo with minimal toxicity
